The source made the active and inactive calls. The rule behind the calls is not given here.

The test system of the first test is Oryctolagus cuniculus. Kind of test: Reduction in maximum Intra ocular pressure in the rabbit model of ocular hypertension, when treated with a minimum effective topical dose of 0.10%.
Settings: not given
The compound `NS(=O)(=O)c1cc2ccc(O)cc2s1` showed an Activity of -6.6 mmHg.

The test system of the next test is Oryctolagus cuniculus. Kind of test: Reduction in maximum Intra ocular pressure in the rabbit model of ocular hypertension, when treated with a minimum effective topical dose of 10%.
Settings: not given
`NS(=O)(=O)c1cc(Cl)c(Cl)c(S(N)(=O)=O)c1` [DICHLORPHENAMIDE]: the Activity is reported as -4.7 mmHg.

For a further test, the system named is Oryctolagus cuniculus. Kind of test: Reduction in maximum Intra ocular pressure in the rabbit model of ocular hypertension, when treated with a minimum effective oral dose of 1.25 mg/kg. The test is classed as functional, Eye.
Settings: not given
`NS(=O)(=O)c1cc2ccc(O)cc2s1` came in with an Activity of -7.7 mmHg. On the same count and under the same terms, the figure for `CC(=O)Nc1nnc(S(N)(=O)=O)s1` [ACETAZOLAMIDE] is -6.3 mmHg.

A further test relates to Oryctolagus cuniculus. Kind of test: Reduction in maximum Intra ocular pressure in the rabbit model of ocular hypertension, when treated with a minimum effective topical dose of 5%.
Settings: not given
In turn, `CC(=O)/N=c1/sc(S(N)(=O)=O)nn1C` [METHAZOLAMIDE] came in with an Activity of -5.1 mmHg.

The next test concerns the target T1, Carbonic anhydrase 2 (Homo sapiens, UniProt P00918).
Assay: not given
Settings: not given
With `NS(=O)(=O)c1cc2ccc(OP(=O)(O)O)cc2s1`, the IC50 is 100 nM. Still for that read-out and setting: the figure for `CC(=O)OCc1ccc2sc(S(N)(=O)=O)cc2c1` is 10 nM; for `CC(C)(C)NCC(O)COc1ccc2cc(S(N)(=O)=O)sc2c1` (configuration not stated) it is 18 nM; for `COCc1ccc2sc(S(N)(=O)=O)cc2c1` it is 9 nM. Still for that read-out and setting: the figure for `CN(C)Cc1ccc2sc(S(N)(=O)=O)cc2c1` is 12 nM; for `NS(=O)(=O)c1cc2ccccc2s1` it is 5.2 nM.

Regarding `CN(C)CCSCc1ccc2sc(S(N)(=O)=O)cc2c1`, the IC50 is 15 nM.

`NS(=O)(=O)c1cc2ccc(OCC(=O)O)cc2s1` registered an IC50 of 14 nM. In the case of `COc1ccc2sc(S(N)(=O)=O)cc2c1`, the IC50 is 23 nM. Same read-out and setting: in the case of `COc1cccc2sc(S(N)(=O)=O)cc12` it was 12 nM; in that of `Nc1ccc2cc(S(N)(=O)=O)sc2c1`, 10 nM; in that of `CC(=O)Nc1ccc2cc(S(N)(=O)=O)sc2c1`, 4.8 nM. On the same count and under the same terms, in the case of `CC(=O)c1ccc2cc(S(N)(=O)=O)sc2c1` it was 6 nM; in that of `NS(=O)(=O)c1cc2cc(CO)ccc2s1`, 9 nM; in that of `CC(C)COC(=O)Oc1ccc2cc(S(N)(=O)=O)sc2c1`, 5.6 nM.

`CN(C)C(=O)Oc1ccc2sc(S(N)(=O)=O)cc2c1` gave an IC50 of 5 nM. In turn, `COc1ccc2cc(S(N)(=O)=O)sc2c1` gave an IC50 of 8.8 nM. On the same count and under the same terms, in the case of `NS(=O)(=O)c1cc2cccc(O)c2s1` it was 11 nM; in that of `COc1cccc2cc(S(N)(=O)=O)sc12`, 50 nM; in that of `CC(C)(C)N1CC(COc2ccc3cc(S(N)(=O)=O)sc3c2)OC1=O` (configuration not stated), 8 nM. Take `NS(=O)(=O)c1cc2cc(CN3CCOCC3)ccc2s1`: the IC50 worked out at 15 nM.

Take `NS(=O)(=O)c1cc2cc(O)ccc2s1`: the IC50 was 6.2 nM. Still for that read-out and setting: in the case of `NS(=O)(=O)c1cc2c(O)cccc2s1` it was 12 nM; in that of `NS(=O)(=O)c1cc2ccc(OS(=O)(=O)O)cc2s1`, 6.8 nM.

Another test deals with T1, Carbonic anhydrase 2. The test is described as follows: Concentration of inhibitor required to reduce the rate of carbonic anhydrase II catalyzed CO2 hydration by 50%. Conditions: read-out: I50.
`CC(=O)Oc1ccc2cc(S(N)(=O)=O)sc2c1`: the IC50 was determined as 4 nM. On the same count and under the same terms, in the case of `CC(C)(C)C(=O)Oc1ccc2cc(S(N)(=O)=O)sc2c1` it was 2.6 nM.

A further test concerns Oryctolagus cuniculus. Kind of test: Reduction in maximum Intra ocular pressure in the rabbit model of ocular hypertension, when treated with a minimum effective topical dose of 0.25%.
Settings: not given
`CC(C)(C)C(=O)Oc1ccc2nc(S(N)(=O)=O)sc2c1` showed an Activity of -7.8 mmHg.

The next test concerns Oryctolagus cuniculus. The test is described as follows: Reduction in maximum Intra ocular pressure in the rabbit model of ocular hypertension, when treated with a minimum effective topical dose of 0.10%.
Settings: not given
The source holds these as a separate data set.
The compound `CC(=O)Oc1ccc2cc(S(N)(=O)=O)sc2c1` came in with an Activity of -5.3 mmHg.

The next test has as its system Oryctolagus cuniculus. Kind of test: Reduction in maximum Intra ocular pressure in the rabbit model of ocular hypertension, when treated with a minimum effective topical dose of 10%; NE means No Effect. The note with it: Eye.
Regarding `CCOc1ccc2nc(S(N)(=O)=O)sc2c1`, the result was inactive.

The next test has as its system Oryctolagus cuniculus. Kind of test: Reduction in maximum Intra ocular pressure in the rabbit model of ocular hypertension, when treated with a minimum effective topical dose of 0.05%.
Settings: not given
On to `NS(=O)(=O)c1cc2ccc(O)cc2s1`, for which the Activity was -5.6 mmHg. Still for that read-out and setting: the figure for `CC(C)(C)C(=O)Oc1ccc2cc(S(N)(=O)=O)sc2c1` is -4.7 mmHg.

The subject of the next test is Oryctolagus cuniculus. Kind of test: Reduction in maximum Intra ocular pressure in the rabbit model of ocular hypertension, when treated with a minimum effective oral dose of 10 mg/Kg; NE is No Effect. The test is classed as functional, organism-based. Conditions: Eye.
For the compound `CC(=O)Nc1nnc(S(N)(=O)=O)s1` [ACETAZOLAMIDE], the result was inactive.
